Results taken from the NIST ThermoML archive (doi:10.1007/s10765-010-0717-9).
± gives the expanded uncertainty stated by the source.

Details: 298.15 K; 101.33 kPa; Liquid; Pycnometric method
For Cc1ccccc1C [1,2-dimethylbenzene], the mass density was 875.99 ± 5.6 kg/m3.
Work on Cc1ccc(C)cc1 [1,4-dimethylbenzene] yielded a mass density of 856.58 ± 5.3 kg/m3.
Cc1ccccc1 [toluene] gave a mass density of 862.21 ± 5.4 kg/m3.
